According to ChEMBL document CHEMBL4196057, “The chemical diversity and structure-based evolution of non-peptide CXCR4 antagonists with diverse therapeutic potential” (Eur J Med Chem, 2018):
Values belong to the compound of their own block, whether it stands above or below them.

Columns and labels:
[1] = target: T1, C-X-C chemokine receptor type 4 (Homo sapiens, UniProt P61073); test: Inhibition of SDF-1 binding to CXCR4 (unknown origin)
[2] = test system: Human immunodeficiency virus 1; test: Antiviral activity against HIV1 3B infected in human MT4 cells assessed as inhibition of virus induced cytopathic effect after 5 days by MTT assay; assay type: functional, organism-based; conditions: Human immunodeficiency virus 1, 3B, MT4, 120 h
[3] = target: T1, C-X-C chemokine receptor type 4; test: Inhibition of SDF-1 binding to CXCR4 (unknown origin) at 10 uM relative to control
[4] = test system: Human immunodeficiency virus 1; test: Antiviral activity against HIV1 infected in human PBMC measured at 7 to 10 days post infection by ELISA; assay type: functional, organism-based; conditions: Human immunodeficiency virus 1, PBMC
[5] = Cytotoxicity against human MT4 cells assessed as reduction in cell viability; assay type: cell-based
[6] = target: T1, C-X-C chemokine receptor type 4; test: Displacement of [125I]SDF-1alpha from CXCR4 in human MT4 cells after 2 hrs by scintillation counting analysis; assay type: cell-based
[7] = Bioavailability in Wistar rat at 200 mg/ml/kg administered intraduodenal by LC-MS analysis; assay type: ADME, organism-based; conditions: in vivo
[8] = test system: Human immunodeficiency virus 1; test: Antiviral activity against HIV1 3B infected in human MT4 cells assessed as inhibition of virus replication by MTT assay; assay type: functional, organism-based; conditions: Human immunodeficiency virus 1, 3B
[9] = Plasma concentration in Wistar rat at 200 mg/ml/kg administered intraduodenal after 60 mins by LC-MS analysis; assay type: ADME
[10] = test system: Human immunodeficiency virus 1; test: Antiviral activity against HIV1 3B; assay type: functional, organism-based; conditions: Human immunodeficiency virus 1, 3B
[11] = test system: Human immunodeficiency virus 1; test: Antiviral activity against HIV1 assessed as inhibition of virus induced cytopathic effect; assay type: functional, organism-based
[12] = target: T1, C-X-C chemokine receptor type 4; test: Displacement of [125I]SDF-1 from human CXCR4 expressed in HEK293 cell membranes after 1.5 hrs by Topcount method
[13] = target: T1, C-X-C chemokine receptor type 4; test: Antagonist activity at CXCR4 (unknown origin); assay type: functional
[14] = test system: Human immunodeficiency virus; test: Antiviral activity against HIV R4; assay type: functional, organism-based; conditions: Human immunodeficiency virus 1, R4
[15] = test system: Human immunodeficiency virus 1; test: Antiviral activity against HIV1 R5 infected in human PBMC after 1 hr by ELISA; assay type: functional, organism-based; conditions: Human immunodeficiency virus 1, R5, PBMC
[16] = test system: Human immunodeficiency virus 1; test: Antiviral activity against HIV1 R5/X4 infected in human PBMC after 1 hr by ELISA; assay type: functional, organism-based; conditions: Human immunodeficiency virus 1, R5/X4, PBMC
[17] = test system: Human immunodeficiency virus 1; test: Antiviral activity against HIV1 NL4-3 infected in human PBMC after 1 hr by ELISA; assay type: functional, organism-based; conditions: Human immunodeficiency virus 1, NL4-3, PBMC
[18] = test system: Human immunodeficiency virus 1; test: Antiviral activity against HIV1 3B infected in human PBMC after 1 hr by ELISA; assay type: functional, organism-based; conditions: Human immunodeficiency virus 1, 3B

T1 sequence (P61073 whole entry): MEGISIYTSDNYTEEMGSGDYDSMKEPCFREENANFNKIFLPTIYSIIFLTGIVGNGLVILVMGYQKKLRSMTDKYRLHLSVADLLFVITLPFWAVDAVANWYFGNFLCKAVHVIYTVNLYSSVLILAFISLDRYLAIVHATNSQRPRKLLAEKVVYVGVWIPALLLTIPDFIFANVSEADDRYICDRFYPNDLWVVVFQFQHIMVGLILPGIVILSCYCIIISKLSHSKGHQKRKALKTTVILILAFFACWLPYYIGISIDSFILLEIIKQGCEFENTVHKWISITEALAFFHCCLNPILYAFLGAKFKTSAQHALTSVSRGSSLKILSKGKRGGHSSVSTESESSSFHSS

SMILES: CC1CCCCN1CCCNCc1ccc(CNCCCN2CCCCC2C)cc1 (centres undefined)
- EC50 [2]: 19.3 nM

SMILES: c1ccc(CN2CCC(Nc3nccc(N4CCCCCC4)n3)C2)cc1 (centres undefined)
- inhibition [3]: > 50%

SMILES: CCCN(CCC)CCCCN(C)Cc1ccc(CN(Cc2ncc[nH]2)Cc2nccn2C)cc1
- EC50 [4]: 0.3 to 1 nM

SMILES: C1CNCCNCCCNC(C2CNCCCNCCNCCCN2)CNC1 (centres undefined)
- EC50 [10]: 144 nM

SMILES: CCCN(CCC)CCCCNCc1ccc(CN(Cc2ncc[nH]2)Cc2ncc[nH]2)cc1
- EC50 [4]: 2 nM

SMILES: CC(C)CN(CCCCNC(=O)c1ccc(CN(Cc2ncc[nH]2)Cc2ncc[nH]2)cc1)CC(C)C
- EC50 [4]: 3 nM

SMILES: CN(CCc1ccccc1)C[C@@H]1CCN(CCc2c[nH]c3ccc(-n4cnnc4)cc23)C1
- IC50 [1]: 7 to 20 nM

SMILES: CCN(CC)CCCC(C)Nc1cc(/C=C/c2ccc([N+](=O)[O-])cc2)nc2cc(OC)ccc12 (centres undefined)
- IC50 [12]: 2160 nM

SMILES: C1CNCCNCCCN(CCCN2CCCNCCNCCCNCC2)CCNC1
- EC50 [10]: 248 nM

SMILES: c1ccc(CCNC[C@@H]2CCN(CCc3c[nH]c4ccc(-n5cnnc5)cc34)C2)cc1
- IC50 [1]: 7 to 20 nM

SMILES: CC(NC[C@@H]1CCN(CCc2c[nH]c3ccc(-n4cnnc4)cc23)C1)c1ccccc1 (some centres undefined)
- IC50 [1]: 7 to 20 nM

SMILES: NCCNc1nccc(N2CCCCCC2)n1
- inhibition [3]: > 50%

SMILES: Clc1cc(CN2CCCNCCNCCCNCC2)cc(Cl)n1
- IC50 [15]: 1200 to 26500 nM
- IC50 [16]: 1200 to 26500 nM
- IC50 [17]: 1200 to 26500 nM
- IC50 [18]: 1200 to 26500 nM

SMILES: CCCN(CCC)Cc1ccc(NC(=O)c2ccc(CN(Cc3ncc[nH]3)Cc3ncc[nH]3)cc2)cc1
- EC50 [4]: 2 nM

SMILES: CC(C)CN(CCC[C@H](NC(=O)c1ccc(CNCc2ncc[nH]2)cc1)C(=O)N[C@@H](C)c1cccc2ccccc12)CC(C)C
- EC50 [2]: 6.7 nM

SMILES: c1cc(CN2CCCNCCNCCCNCC2)ccc1CN1CCCNCCNCCCNCC1 [PLERIXAFOR]
- EC50 [10]: 3 nM

SMILES: CC1CCCCN1CCCNCc1ccc(CN2CCCNCCNCCCNCC2)cc1 (centres undefined)
- EC50 [2]: 43.6 nM

SMILES: c1cc(CN2CCCNCCNCCCNCC2)ccc1CNCCCN1CCOCC1
- EC50 [2]: 134 nM

SMILES: CC(C)(NC[C@@H]1CCN(CCc2c[nH]c3ccc(-n4cnnc4)cc23)C1)c1ccccc1
- IC50 [1]: 7 to 20 nM

SMILES: c1ccc(CNCCN(CCNCc2ccccn2)Cc2ccc(CNCc3nc4ccccc4[nH]3)cc2)nc1
- IC50 [13]: 4 to 100 nM

Now from value to compound, other results behind:

- IC50 [1]: < 1000 nM
SMILES: CC(C)Oc1ccc(-c2ccc3ccn(CC(=O)NCCN(C)C4CCCCC4)c3c2)cc1

- IC50 [6]: 13 nM
- bioavailability [7]: 7%
- concentration at 1 h [9]: 30.6 µM
SMILES: C[C@H](NC(=O)[C@H](CCCNC(=N)N)NC(=O)c1ccc(CNCc2ccccn2)cc1)c1cccc2ccccc12
- CC50 [5]: 400000 nM
- EC50 [8]: 19.3 nM

- EC50 [11]: 1 nM
SMILES: c1ccc(CNCc2ccc(CN3CCNCCc4cccc(n4)CCNCC3)cc2)nc1

- EC50 [11]: 9 nM
SMILES: c1ccc(CNCc2ccc(CN3CCCNCCNCCCNCC3)cc2)nc1

- IC50 [13]: 200 nM
- IC50 [14]: 200 to 50000 nM
SMILES: FC(F)(F)c1ccc(NC(=S)NCCc2ccc3c(n2)NCCC3)cc1

- IC50 [13]: 400 nM
- IC50 [14]: 200 to 50000 nM
SMILES: Cn1ccc2c(NC(=O)NCCc3ccc4c(n3)NCCC4)cccc21

- IC50 [13]: 680 nM
- IC50 [14]: 200 to 50000 nM
SMILES: COc1ccc(NC(=O)NCCc2ccc3c(n2)NCCC3)cc1OC

- IC50 [13]: 800 nM
- IC50 [14]: 200 to 50000 nM
SMILES: CC(C)c1ccccc1NC(=O)NCCc1ccc2c(n1)NCCC2

- IC50 [13]: 600 nM
- IC50 [14]: 200 to 50000 nM
SMILES: O=C(NCCc1ccc2c(n1)NCCC2)Nc1ccc(C(F)(F)F)cc1

- IC50 [13]: 600 nM
- IC50 [14]: 200 to 50000 nM
SMILES: O=C(NCCc1ccc2c(n1)NCCC2)Nc1cccc2ccccc12

- IC50 [13]: < 20 nM
SMILES: CN1CCN(c2cc(N)nc(NCc3ccc(CNCCCNC4CCCCC4)cc3)n2)CC1

- IC50 [12]: 36.2 nM
SMILES: c1ccc2c(NC3CCNCC3)nc(NCc3ccc(CNCCCNC4CCCCC4)cc3)nc2c1

- IC50 [13]: 4 to 100 nM
SMILES: COc1ccc2[nH]c(CNCc3ccc(CN(CCNCc4ccccn4)CCNCc4ccccn4)cc3)nc2c1

- IC50 [13]: < 20 nM
SMILES: Nc1cc(N2CCNCC2)nc(NCc2ccc(CNCCCNC3CCCCC3)cc2)n1

- IC50 [1]: 11 nM
SMILES: Cc1ccsc1CN1CCC2(CC1)CCN(Cc1ccc(C(=O)N(Cc3ncc[nH]3)Cc3ncc[nH]3)cc1)C2

- EC50 [11]: 4 nM
SMILES: c1ccc(CNCc2ccc(CN3CCNCCCOCCCNCC3)cc2)nc1
